This note sets out measurements from patent EP4691487A1, “METHOD FOR INCREASING CONCENTRATION OF MACROMOLECULAR DRUG IN TUMOR TISSUE” (priority 2023, dated 2024).

The subject of data set [1] is human pancreatic cancer PC-07-0067 model. Briefly: Anti-tumor efficacy in pancreatic cancer PC-07-0067 subcutaneous xenograft (PDX) model (Example 4). The settings on record: TRODELVY 3 mg/kg IV BIW. Format: in vivo, BALB/c nude mice. From the text: Establishment of PDX model: The human pancreatic cancer PC-07-0067 model was initially established from a surgically resected clinical sample, which was designated as P0 after being inoculated into nude mice. Inoculation of tumor tissue from P0 into the next generation of mice is referred to as P1, and so on for subsequent serial passages in nude mice. FP3 tumors were resuscitated from P2 generation tissue, and the next generation from FP3 was designated as FP4, and so on.
Tumor Inoculation: A 20-30 mm^3 PC-07-0067 FP5 tumor tissue piece was subcutaneously inoculated on the right flank of each mouse for tumor growth. The mice were randomized for dosing when the mean tumor volume reached approximately 100-150 mm^3.
Experimental indicator: The experimental indicator is to examine whether tumor growth is inhibited, delayed or cured. Tumor diameter is measured with a vernier caliper twice a week. The formula for calculating tumor volume is: V = 0.5a × b^2, a and b represent the long diameter and short diameter of the tumor, respectively.
The anti-tumor efficacy of a compound is evaluated using the TGI(%) or tumor proliferation rate (T/C)(%). TGI(%) reflects the rate of tumor growth inhibition.
Tumor proliferation rate T/C (%): The calculation formula is as follows: T/C(%) = Ti/Vi × 100 %, wherein Vi is the mean tumor volume of the solvent control group at a certain measurement, and Ti is the mean tumor volume of the dosing group at the same measurement.

The next data set relates to PC-07-006 model. Briefly: Anti-human IgG secondary antibody staining of TRODELVY bound to tumor cells in vivo (Example 5). Set-up: species or system BALB/c nude mice. As to conditions: tissue samples from Example 4. From the text: The experimental method was the same as in Example 3. The experimental tissue samples were from Example 4. The anti-human IgG secondary antibody was able to recognize the binding of TRODELVY to tumor cells in vivo. […] Example 6: In vivo pharmacological study of the tumor infiltration level of test article, fluorescein Cy5.5-labeled Hanquyou( ? ) antibody (H-Cy5.5), in a subcutaneous xenograft tumor model of human gastric cancer NCI-N87 cells in Balb/c-nude mice after administration of IN10018

Regarding TRODELVY, the T/C (commonly the result in the treated group divided by that in the control group, in per cent) in data set [1] (after 14 days of dosing, T/C = Ti/Vi, IN10018 12.5 mg/kg PO QD) is 27.95%. In data set [1] (after 14 days of dosing, IN10018 12.5 mg/kg PO QD), the TGI (in general, how far tumour growth fell short of that in controls) is listed as 78.91%. In addition, the mean tumor volumes in data set [1] (day 14, IN10018 12.5 mg/kg PO QD (tartrate salt weighed)) worked out at 423 mm^3. For the same sequence, in the data set on PC-07-006 model, the antibody-tumor cell binding result is reported as “significant antibody-tumor cell binding”.
